Inconclusive results and toxic doses are left out. Cut-off read from the data, not from the text of the source: active = T/C of 150% or more; inactive = T/C below 125%.
System: L1210 leukemia ip in BDF1 mice, survival T/C
Assay: NCI In Vivo Anticancer Drug Screen. Data for tumor model L1210 Leukemia (intraperitoneal) in B6D2F1 (BDF1) mice
Conditions: endpoint: mean survival time, higher = longer survival
Procedure, shortened: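 Transplantable tumor model; survival measured in treated vs vehicle control mice. Value = treated/control.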

[1] = dose: 100.0 mg/kg/injection, schedule: Q01DX001 (ip), vehicle: saline
[2] = dose: 200.0 mg/kg/injection, schedule: Q01DX001 (ip), vehicle: saline
[3] = dose: 400.0 mg/kg/injection, schedule: Q01DX001 (ip), vehicle: saline
[4] = dose: 100.0 mg/kg/injection, schedule: Q04DX003 (ip), vehicle: Klucel (hydroxypropylcellulose) (HPC)
[5] = dose: 200.0 mg/kg/injection, schedule: Q04DX003 (ip), vehicle: Klucel (hydroxypropylcellulose) (HPC)
[6] = dose: 400.0 mg/kg/injection, schedule: Q04DX003 (ip), vehicle: Klucel (hydroxypropylcellulose) (HPC)
[7] = dose: 100.0 mg/kg/injection, schedule: Q04DX003 (ip), vehicle: saline
[8] = dose: 200.0 mg/kg/injection, schedule: Q04DX003 (ip), vehicle: saline
[9] = dose: 100.0 mg/kg/injection, schedule: Q01DX009 (ip), vehicle: Klucel (hydroxypropylcellulose) (HPC)
[10] = dose: 200.0 mg/kg/injection, schedule: Q01DX009 (ip), vehicle: Klucel (hydroxypropylcellulose) (HPC)
[11] = dose: 400.0 mg/kg/injection, schedule: Q01DX009 (ip), vehicle: Klucel (hydroxypropylcellulose) (HPC)
[12] = dose: 50.0 mg/kg/injection, schedule: Q01DX001 (ip), vehicle: saline
[13] = dose: 100.0 mg/kg/injection, schedule: Q01DX009 (ip), vehicle: saline
[14] = dose: 200.0 mg/kg/injection, schedule: Q01DX009 (ip), vehicle: saline
[15] = dose: 100.0 mg/kg/injection, schedule: Q04DX002 (ip), vehicle: Klucel (hydroxypropylcellulose) (HPC)

Measured: T/C

O=[N+]([O-])c1ccc(/C=N/O)s1
inactive: dose: 25.0 mg/kg/injection, schedule: Q04DX002 (ip), vehicle: saline with Tween-80 95 % of control | dose: 50.0 mg/kg/injection, schedule: Q04DX002 (ip), vehicle: saline with Tween-80 104 % of control

O=C(OCc1ccccc1CN1CCCC1)c1cccc(Cl)c1
inactive: dose: 100.0 mg/kg/injection, schedule: Q01DX001 (ip), vehicle: Klucel (hydroxypropylcellulose) (HPC) 102 % of control | dose: 200.0 mg/kg/injection, schedule: Q01DX001 (ip), vehicle: Klucel (hydroxypropylcellulose) (HPC) 117 % of control

CN(C)C(CCN1CCCCC1)CN1CCCCC1 (stereo not given)
inactive: [1] 100 % of control | [2] 96 % of control | [3] 90 % of control

Cc1ccc(S(=O)(=O)OC2COC3C(OS(=O)(=O)c4ccc(C)cc4)COC23)cc1 (stereo not given)
inactive: [1] 93 % of control | dose: 100.0 mg/kg/injection, schedule: Q04DX003 (ip), vehicle: DMSO 103 % of control | [2] 96 % of control | dose: 200.0 mg/kg/injection, schedule: Q04DX003 (ip), vehicle: DMSO 97 % of control | [3] 93 % of control | dose: 400.0 mg/kg/injection, schedule: Q04DX003 (ip), vehicle: DMSO 111 % of control

CCCCCCCCCC(Br)C(C)(C)COO (stereo not given)
inactive: dose: 50.0 mg/kg/injection, schedule: Q01DX001 (ip), vehicle: water 97 % of control | dose: 100.0 mg/kg/injection, schedule: Q01DX001 (ip), vehicle: water 101 % of control | dose: 200.0 mg/kg/injection, schedule: Q01DX001 (ip), vehicle: water 102 % of control

CCN(C(=O)Nc1cccc(C(F)(F)F)c1)c1ccccc1C(F)(F)F
inactive: [4] 98 % of control | [5] 91 % of control | [6] 93 % of control

O=CNc1cc([N+](=O)[O-])cc([N+](=O)[O-])c1O
inactive: [4] 104 % of control | [5] 100 % of control | [6] 93 % of control

CCCC(=O)N1CCCCCC1
inactive: dose: 100.0 mg/kg/injection, schedule: Q04DX002 (ip), vehicle: saline with Tween-80 92 % of control | dose: 200.0 mg/kg/injection, schedule: Q04DX002 (ip), vehicle: saline with Tween-80 113 % of control | dose: 400.0 mg/kg/injection, schedule: Q04DX002 (ip), vehicle: saline with Tween-80 95 % of control

C=C(Br)CNC(=O)OCCCC
inactive: dose: 12.5 mg/kg/injection, schedule: Q01DX009 (ip), vehicle: saline with Tween-80 94 % of control | dose: 25.0 mg/kg/injection, schedule: Q01DX009 (ip), vehicle: saline with Tween-80 100 % of control | dose: 50.0 mg/kg/injection, schedule: Q01DX009 (ip), vehicle: saline with Tween-80 98 % of control | [7] 94 % of control | [8] 102 % of control

CCCCCCCCCCCCCC(=O)[O][Hg][c]1ccccc1
inactive: dose: 75.0 mg/kg/injection, schedule: Q01DX001 (ip), vehicle: steriod suspending solution 96 % of control

Cc1ccc2c(c1)c(N=NC(N)=S)c(O)n2C1OC(CO)C(O)C(O)C1O (stereo not given)
inactive: dose: 50.0 mg/kg/injection, schedule: Q01DX005 (ip), vehicle: saline 94 % of control | dose: 100.0 mg/kg/injection, schedule: Q01DX005 (ip), vehicle: saline 91 % of control | dose: 200.0 mg/kg/injection, schedule: Q01DX005 (ip), vehicle: saline 94 % of control

CCN(CC)C(=O)CS(=O)(=O)c1ccc(C)cc1
inactive: dose: 100.0 mg/kg/injection, schedule: Q04DX003 (ip), vehicle: saline with Tween-80 96 % of control | dose: 200.0 mg/kg/injection, schedule: Q04DX003 (ip), vehicle: saline with Tween-80 110 % of control | dose: 400.0 mg/kg/injection, schedule: Q04DX003 (ip), vehicle: saline with Tween-80 98 % of control

CN(C)C=NC1c2ccccc2CCc2ccccc21
inactive: [9] 98 % of control | [4] 104 % of control | [10] 97 % of control | [5] 91 % of control | [11] 100 % of control | [6] 94 % of control

O=NN(CCF)C(=O)NC1CCCCCCCCCCC1
inactive: dose: 40.0 mg/kg/injection, schedule: Q01DX001 (ip), vehicle: other 108 % of control | dose: 60.0 mg/kg/injection, schedule: Q01DX001 (ip), vehicle: other 112 % of control

c1ncc2[nH]cnc2n1
inactive: dose: 27.33 mg/kg/injection, schedule: Q01DX Z (ip), vehicle: carboxymethylcellulose (CMC) 96 % of control | dose: 54.67 mg/kg/injection, schedule: Q01DX Z (ip), vehicle: carboxymethylcellulose (CMC) 96 % of control | dose: 109.35 mg/kg/injection, schedule: Q01DX Z (ip), vehicle: carboxymethylcellulose (CMC) 108 % of control | dose: 218.7 mg/kg/injection, schedule: Q01DX Z (ip), vehicle: carboxymethylcellulose (CMC) 98 % of control

Cc1ccc(OCCOc2ccc(N)cc2)cc1
inactive: dose: 100.0 mg/kg/injection, schedule: Q04DX003 (ip), vehicle: alcohol 92 % of control | dose: 200.0 mg/kg/injection, schedule: Q04DX003 (ip), vehicle: alcohol 95 % of control | dose: 400.0 mg/kg/injection, schedule: Q04DX003 (ip), vehicle: alcohol 90 % of control

Cc1sc(=S)n(CC(=O)O)c1C
inactive: dose: 100.0 mg/kg/injection, schedule: Q01DX009 (ip), vehicle: saline with Tween-80 93 % of control | dose: 200.0 mg/kg/injection, schedule: Q01DX009 (ip), vehicle: saline with Tween-80 93 % of control | dose: 400.0 mg/kg/injection, schedule: Q01DX009 (ip), vehicle: saline with Tween-80 92 % of control

O=C(CCCC(=O)N/N=C/c1cc(Cl)ccc1[N+](=O)[O-])N/N=C\c1cc(Cl)ccc1[N+](=O)[O-]
inactive: [12] 98 % of control | [1] 90 % of control | [2] 95 % of control | [3] 98 % of control

CC(O)C1CCCNC1 (stereo not given)
inactive: [7] 108 % of control | [8] 97 % of control

O=C(CNC(=O)c1ccc(Cl)c(Cl)c1)N/N=C/c1ccc(Cl)cc1
inactive: dose: 50.0 mg/kg/injection, schedule: Q01DX009 (ip), vehicle: Klucel (hydroxypropylcellulose) (HPC) 93 % of control | [9] 88 % of control | [10] 98 % of control

CCOC(=O)c1ccc(NC(=O)Nc2ccc(Cl)cc2)cc1
inactive: [9] 97 % of control | [4] 96 % of control | [10] 104 % of control | [5] 104 % of control | [11] 97 % of control | [6] 100 % of control

O=C1c2ccccc2S(=O)(=O)N1CCN1C(=O)c2ccccc2S1(=O)=O
inactive: [4] 94 % of control | [5] 93 % of control | [6] 94 % of control

CCNCCC#N
inactive: [13] 111 % of control | [4] 108 % of control | [14] 107 % of control | [5] 107 % of control | [6] 111 % of control

Nc1c(S(=O)(=O)O)ccc2c1C(=O)c1ccccc1C2=O
inactive: [13] 90 % of control | [7] 101 % of control | [14] 97 % of control | [8] 96 % of control | dose: 400.0 mg/kg/injection, schedule: Q01DX009 (ip), vehicle: saline 92 % of control | dose: 400.0 mg/kg/injection, schedule: Q04DX003 (ip), vehicle: saline 91 % of control

CNC(=O)CCCOC(=O)c1ccc([N+](=O)[O-])cc1
inactive: dose: 25.0 mg/kg/injection, schedule: Q04DX002 (ip), vehicle: Klucel (hydroxypropylcellulose) (HPC) 108 % of control | dose: 50.0 mg/kg/injection, schedule: Q04DX002 (ip), vehicle: Klucel (hydroxypropylcellulose) (HPC) 108 % of control | [15] 104 % of control

O=C(O)c1c(Br)c(Br)c(Br)c(Br)c1C(=O)Nc1ccc([N+](=O)[O-])cc1
inactive: [9] 104 % of control | [15] 96 % of control | [10] 109 % of control | dose: 200.0 mg/kg/injection, schedule: Q04DX002 (ip), vehicle: Klucel (hydroxypropylcellulose) (HPC) 96 % of control | dose: 400.0 mg/kg/injection, schedule: Q04DX002 (ip), vehicle: Klucel (hydroxypropylcellulose) (HPC) 107 % of control

O=S(=O)(O)N(O)S(=O)(=O)O
inactive: dose: 100.0 mg/kg/injection, schedule: Q04DX002 (ip), vehicle: saline 97 % of control | [7] 97 % of control | dose: 200.0 mg/kg/injection, schedule: Q04DX002 (ip), vehicle: saline 97 % of control | [8] 90 % of control | dose: 400.0 mg/kg/injection, schedule: Q04DX002 (ip), vehicle: saline 102 % of control

CC(=O)OCC1OC(N2c3ccccc3CC2C)C(OC(C)=O)C(OC(C)=O)C1OC(C)=O (stereo not given)
inactive: dose: 25.0 mg/kg/injection, schedule: Q01DX001 (ip), vehicle: saline 94 % of control | [12] 94 % of control | [1] 94 % of control
